Active and inactive are the calls of the source. The calls are words filed in the database; no cut-off is given here.
Experiments:
[1] = Growth inhibition of human Hep3B cells after 72 hrs by XTT assay; type: functional, Hep 3B2
HepG2 [2] = test: Cell cycle arrest in human HepG2 cells assessed as accumulation at S phase at 5 uM after 12 hrs using propidium iodide staining by flow cytometry (reference value: 13.8%); type: functional
[3] = Growth inhibition of human H1299 cells after 72 hrs by XTT assay; type: functional; details: NCI-H1299, 72 h
HepG2 [4] = test: Induction of apoptosis in human HepG2 cells assessed as cell shrinking at 5 uM after 12 hrs by light microscopic method; type: functional, cell-based
[5] = Cell cycle arrest in human Hep3B cells assessed as accumulation at S phase at 1 uM after 12 hrs using propidium iodide staining by flow cytometry (reference value: 12.2%); type: functional, cell-based; details: Hep 3B2
MCF7 = test: Growth inhibition of human MCF7 cells after 72 hrs by XTT assay; type: functional; details: MCF7, 72 h
[6] = Cell cycle arrest in human Hep3B cells assessed as accumulation at S phase at 5 uM after 12 hrs using propidium iodide staining by flow cytometry (reference value: 12.2%); type: functional, cell-based; details: Hep 3B2
HepG2 [7] = test: Cell cycle arrest in human HepG2 cells assessed as accumulation at G2/M phase at 1 uM after 12 hrs using propidium iodide staining by flow cytometry (reference value: 18.7 %); type: functional
Hep 3B2 [8] = test: Growth inhibition of human Hep3B cells assessed as assessed as suppression of cell viability at 5 uM after 12 hrs by XTT assay; type: functional, cell-based
[9] = Cell cycle arrest in human Hep3B cells assessed as accumulation at G2/M phase at 5 uM after 12 hrs using propidium iodide staining by flow cytometry (reference value: 16.2 %); type: functional, cell-based; details: Hep 3B2
HepG2 [10] = test: Cell cycle arrest in human HepG2 cells assessed as accumulation at S phase at 10 uM after 12 hrs using propidium iodide staining by flow cytometry (reference value: 13.8%); type: functional
HepG2 [11] = test: Growth inhibition of human HepG2 cells at 0.1 to 5 uM by XTT assay; type: functional, cell-based; details: TDE = time-dependent effect
Hep 3B2 [12] = test: Growth inhibition of human Hep3B cells after 12 to 72 hrs by XTT assay; type: functional, cell-based
[13] = Cell cycle arrest in human Hep3B cells assessed as accumulation at sub-G1 phase at 10 uM after 12 hrs using propidium iodide staining by flow cytometry (reference value: 2.1%); type: functional, cell-based; details: Hep 3B2
[14] = Cell cycle arrest in human Hep3B cells assessed as accumulation at sub-G1 phase at 5 uM after 12 hrs using propidium iodide staining by flow cytometry (reference value: 2.1%); type: functional, cell-based; details: Hep 3B2
HepG2 [15] = test: Induction of apoptosis in human HepG2 cells assessed as Bcl-2 level at 1 to 10 uM after 12 hrs by chemiluminescence blotting method; type: functional, cell-based
[16] = Cell cycle arrest in human Hep3B cells assessed as accumulation at sub-G1 phase at 1 uM after 12 hrs using propidium iodide staining by flow cytometry (reference value: 2.1%); type: functional, cell-based; details: Hep 3B2
HepG2 [17] = test: Cell cycle arrest in human HepG2 cells assessed as accumulation at S phase at 1 uM after 12 hrs using propidium iodide staining by flow cytometry (reference value: 13.8%); type: functional
HepG2 [18] = test: Cell cycle arrest in human HepG2 cells assessed as accumulation at sub-G1 phase at 5 uM after 12 hrs using propidium iodide staining by flow cytometry (reference value: 3.6%); type: functional
[19] = Cell cycle arrest in human Hep3B cells assessed as accumulation at G2/M phase at 1 uM after 12 hrs using propidium iodide staining by flow cytometry (reference value: 16.2 %); type: functional, cell-based; details: Hep 3B2
[20] = Cell cycle arrest in human Hep3B cells assessed as accumulation at G1 phase at 1 uM after 12 hrs using propidium iodide staining by flow cytometry (reference value: 71.6%); type: functional, cell-based; details: Hep 3B2
HepG2 [21] = test: Cell cycle arrest in human HepG2 cells assessed as accumulation at G2/M phase at 10 uM after 12 hrs using propidium iodide staining by flow cytometry (reference value: 18.7 %); type: functional
HepG2 [22] = test: Induction of apoptosis in human HepG2 cells assessed as increase in expression of p53 protein at 1 to 10 uM after 12 hrs by chemiluminescence blotting method; type: functional, cell-based
Hep 3B2 [23] = test: Induction of apoptosis in human Hep3B cells assessed as cell shrinking at 5 uM after 12 hrs by light microscopic method; type: functional, cell-based
[24] = Cell cycle arrest in human Hep3B cells assessed as accumulation at G1 phase at 5 uM after 12 hrs using propidium iodide staining by flow cytometry (reference value: 71.6%); type: functional, cell-based; details: Hep 3B2
Hep 3B2 [25] = test: Growth inhibition of human Hep3B cells at 0.1 to 5 uM by XTT assay; type: functional, cell-based; details: TDE = time-dependent effect
[26] = Cell cycle arrest in human Hep3B cells assessed as accumulation at G1 phase at 10 uM after 12 hrs using propidium iodide staining by flow cytometry (reference value: 71.6%); type: functional, cell-based; details: Hep 3B2
[27] = Cell cycle arrest in human Hep3B cells assessed as accumulation at S phase at 10 uM after 12 hrs using propidium iodide staining by flow cytometry (reference value: 12.2%); type: functional, cell-based; details: Hep 3B2
HepG2 [28] = test: Cell cycle arrest in human HepG2 cells assessed as accumulation at G1 phase at 1 uM after 12 hrs using propidium iodide staining by flow cytometry (reference value: 67.5%); type: functional
HepG2 [29] = test: Induction of apoptosis in human HepG2 cells assessed as increased expression of Bax protein at 1 to 10 uM after 12 hrs by immunoblot; type: functional, cell-based
MDA-MB-231 = test: Growth inhibition of human MDA-MB-231 cells after 72 hrs by XTT assay; type: functional; details: MDA-MB-231, 72 h
HepG2 [30] = test: Growth inhibition of human HepG2 cells assessed as suppression of cell viability at 5 uM after 12 hrs by XTT assay; type: functional, cell-based
HepG2 [31] = test: Growth inhibition of human HepG2 cells after 72 hrs by XTT assay; type: functional; details: HepG2, 72 h
A549 = test: Growth inhibition of human A549 cells after 72 hrs by XTT assay; type: functional; details: A549, 72 h
HepG2 [32] = test: Cell cycle arrest in human HepG2 cells assessed as accumulation at sub-G1 phase at 10 uM after 12 hrs using propidium iodide staining by flow cytometry (reference value: 3.6%); type: functional
HepG2 [33] = test: Cell cycle arrest in human HepG2 cells assessed as accumulation at G2/M phase at 5 uM after 12 hrs using propidium iodide staining by flow cytometry (reference value: 18.7 %); type: functional
HepG2 [34] = test: Induction of apoptosis in human HepG2 cells assessed as increase in caspase-8 level at 1 to 10 uM after 12 hrs by chemiluminescence blotting method; type: functional, cell-based
HepG2 [35] = test: Cell cycle arrest in human HepG2 cells assessed as accumulation at G1 phase at 10 uM after 12 hrs using propidium iodide staining by flow cytometry (reference value: 67.5%); type: functional
HepG2 [36] = test: Cell cycle arrest in human HepG2 cells assessed as accumulation at G1 phase at 5 uM after 12 hrs using propidium iodide staining by flow cytometry (reference value: 67.5%); type: functional
HepG2 [37] = test: Cell cycle arrest in human HepG2 cells assessed as accumulation at sub-G1 phase at 1 uM after 12 hrs using propidium iodide staining by flow cytometry (reference value: 3.6%); type: functional
[38] = Cell cycle arrest in human Hep3B cells assessed as accumulation at G2/M phase at 10 uM after 12 hrs using propidium iodide staining by flow cytometry (reference value: 16.2 %); type: functional, cell-based; details: Hep 3B2
HepG2 [39] = test: Growth inhibition of human HepG2 cells after 12 to 72 hrs by XTT assay; type: functional, cell-based

CN(C)CCCO/N=C1\c2cc(O)ccc2-c2c(-c3ccc(OCCCN(C)C)cc3)nc3ccc(F)cc3c21 gave a GI50 [1] of 390 nM, an Activity (HepG2 [2]) of 18.5% and a GI50 [3] of 670 nM. For the same molecule, the Activity (HepG2 [4]) was “Active”, the Activity [5] was 10.4% and the GI50 (MCF7) was 6460 nM. For the same molecule, the Activity [6] was 17.4%, the Activity (HepG2 [7]) was 31.1% and the “growth inhibition (GI)” value (Hep 3B2 [8]) was “Active”. For the same molecule, the Activity [9] was 18.1%, the Activity (HepG2 [10]) was 21.7% and the “growth inhibition (GI)” value (HepG2 [11]) was “tde”. For the same molecule, the “growth inhibition (GI)” value (Hep 3B2 [12]) was “Dose-dependent effect”, the Activity [13] was 33.5% and the Activity [14] was 21.8%. The Activity (HepG2 [15]) was “Active”, the Activity [16] was 5.3% and the Activity (HepG2 [17]) was 12.4%. The Activity (HepG2 [18]) was 19.8%, the Activity [19] was 30.7% and the Activity [20] was 58.9%. For the same molecule, the Activity (HepG2 [21]) was 17.9%, the Activity (HepG2 [22]) was “Active” and the Activity (Hep 3B2 [23]) was “Active”. For the same molecule, the Activity [24] was 42.7%, the “growth inhibition (GI)” value (Hep 3B2 [25]) was “tde” and the Activity [26] was 37.2%. For the same molecule, the Activity [27] was 15.2%, the Activity (HepG2 [28]) was 56.5% and the Activity (HepG2 [29]) was “Active”. The GI50 (MDA-MB-231) was 650 nM, the “growth inhibition (GI)” value (HepG2 [30]) was “Active” and the GI50 (HepG2 [31]) was 640 nM. The GI50 (A549) was 550 nM, the Activity (HepG2 [32]) was 29.1% and the Activity (HepG2 [33]) was 23.6%. For the same molecule, the Activity (HepG2 [34]) was “Active”, the Activity (HepG2 [35]) was 31.3% and the Activity (HepG2 [36]) was 38.1%. The Activity (HepG2 [37]) was 4.9%, the Activity [38] was 14.1% and the “growth inhibition (GI)” value (HepG2 [39]) was “Dose-dependent effect”.
